Results from PMC7023430, “4-Aminobenzoic Acid Derivatives: Converting Folate Precursor to Antimicrobial and Cytotoxic Agents” (Biomolecules, 2019).
Values after ≈ are worked out from the molar mass of the structure shown. Where two headings read alike, the source gives them in different places.

Experiments:
[1] = system: Mycobacterium avium 330/88; test: Antimycobacterial micromethod in Šula's medium, M. avium; assay type: cell-based
Candida glabrata 20/I = test: Antifungal microdilution broth method, C. glabrata; assay type: cell-based; conditions: Nakaseomyces glabratus
Summary of the method: (§1)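 MIC by visual endpoint reading after twofold serial dilution of DMSO-dissolved compounds in RPMI-1640 (L-glutamine, 2% glucose, pH 7.0 with MOPS). Method follows EUCAST instructions, slightly modified; duplicates required agreement within one dilution step.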

[2] = system: Klebsiella pneumoniae D 11750/08; test: Antibacterial microdilution broth method, K. pneumoniae; conditions: K. pneumoniae D 11750/08; for MIC KP 24 h: 24 h incubation; for MIC KP 48 h: 48 h incubation
[3] = system: Lichtheimia corymbifera 272; test: Antifungal microdilution broth method, L. corymbifera; assay type: cell-based
Summary of the method: as §1

[4] = system: Staphylococcus epidermidis H 6966/08; test: Antibacterial microdilution broth method, S. epidermidis; assay type: cell-based; conditions: Staphylococcus epidermidis, H6966/08
[5] = system: M. kansasii 6509/96 (clinical isolate); test: Antimycobacterial micromethod in Šula's medium, M. kansasii 6509/96; assay type: cell-based; conditions: Mycobacterium kansasii
[6] = system: Escherichia coli ATCC 25922, CCM 3954; test: Antibacterial microdilution broth method, E. coli; assay type: cell-based; conditions: Escherichia coli
[7] = system: Mycobacterium tuberculosis H37Rv (331/88); test: Antimycobacterial micromethod in Šula's medium, M. tuberculosis; assay type: cell-based
[8] = system: Trichophyton interdigitale 445; test: Antifungal microdilution broth method, T. interdigitale; assay type: cell-based
Summary of the method: as §1

Trichosporon asahii 1188 = test: Antifungal microdilution broth method, T. asahii; assay type: cell-based
Summary of the method: as §1

[9] = system: Staphylococcus aureus ATCC 29213, CCM 4223; test: Antibacterial microdilution broth method, S. aureus; assay type: cell-based
Candida krusei E28 = test: Antifungal microdilution broth method, C. krusei; assay type: cell-based; conditions: Pichia kudriavzevii
Summary of the method: as §1

[10] = system: Enterococcus faecalis ATCC 29212, CCM 4224; test: Antibacterial microdilution broth method, E. faecalis; assay type: cell-based; conditions: Enterococcus faecalis
[11] = system: Aspergillus fumigatus 231; test: Antifungal microdilution broth method, A. fumigatus; assay type: cell-based
Summary of the method: as §1

[12] = system: Pseudomonas aeruginosa ATCC 27853, CCM 3955; test: Antibacterial microdilution broth method, P. aeruginosa; assay type: cell-based; conditions: Pseudomonas aeruginosa, P. aeruginosa
[13] = system: Mycobacterium kansasii 235/80; test: Antimycobacterial micromethod in Šula's medium, M. kansasii 235/80; assay type: cell-based
[14] = 330/88, 336 h, 14 days incubation at 37 °C, read-out: MIC M. avium 330/88 14 d
[15] = 330/88, 504 h, 21 days incubation at 37 °C, read-out: MIC M. avium 330/88 21 d
[16] = S. epidermidis, 24 h incubation, read-out: MIC SE 24 h
[17] = S. epidermidis, 48 h incubation, read-out: MIC SE 48 h
[18] = time not stated, read-out: MIC, S. epidermidis
[19] = 168 h, 7 days incubation at 37 °C, read-out: MIC M. kansasii 6509/96 7 d
[20] = 336 h, 14 days incubation at 37 °C, read-out: MIC M. kansasii 6509/96 14 d
[21] = 504 h, 21 days incubation at 37 °C, read-out: MIC M. kansasii 6509/96 21 d
[22] = 24 h incubation, read-out: MIC EC 24 h
[23] = 48 h incubation, read-out: MIC EC 48 h
[24] = 336 h, 14 days incubation at 37 °C, read-out: MIC Mtb. 331/88 14 d
[25] = 504 h, 21 days incubation at 37 °C, read-out: MIC Mtb. 331/88 21 d
[26] = 24 h incubation, read-out: MIC SA 24 h
[27] = 48 h incubation, read-out: MIC SA 48 h
[28] = 24 h incubation, read-out: MIC EF 24 h
[29] = 48 h incubation, read-out: MIC EF 48 h
[30] = 24 h incubation, read-out: MIC PA 24 h
[31] = 48 h incubation, read-out: MIC PA 48 h
[32] = 235/80, 168 h, 7 days incubation at 37 °C, read-out: MIC M. kansasii 235/80 7 d
[33] = 235/80, 336 h, 14 days incubation at 37 °C, read-out: MIC M. kansasii 235/80 14 d
[34] = 235/80, 504 h, 21 days incubation at 37 °C, read-out: MIC M. kansasii 235/80 21 d

Cc1ccc(O)c(C=Nc2ccc(C(=O)O)cc2)c1 [1g, 4-[(2-Hydroxy-5-methylbenzylidene)amino]benzoic acid]
MIC [1, 14]: > 1000 µM | MIC [1, 15]: > 1000 µM | MIC (Candida glabrata 20/I; 24 h, read-out: MIC CG 24 h): > 125 µM | MIC (Candida glabrata 20/I; 48 h, read-out: MIC CG 48 h): > 125 µM | MIC KP 24 h [2]: >500 µM | MIC KP 48 h [2]: >500 µM | MIC ([3]; 24 h, read-out: MIC LC 24 h): > 125 µM | MIC ([3]; 48 h, read-out: MIC LC 48 h): > 125 µM | MIC [4, 16]: 250 µM (≈ 63.8 µg/mL) | MIC [4, 17]: 250 µM (≈ 63.8 µg/mL) | MIC [4, 18]: ≥ 250 µM | MIC [5, 19]: 500 µM (≈ 128 µg/mL) | MIC [5, 20]: 500 µM (≈ 128 µg/mL) | MIC [5, 21]: 1000 µM (≈ 255 µg/mL) | MIC [6, 22]: > 500 µM | MIC [6, 23]: > 500 µM | MIC [7, 24]: 500 µM (≈ 128 µg/mL) | MIC [7, 25]: 500 µM (≈ 128 µg/mL) | MIC ([8]; 72 h, read-out: MIC TI 72 h): > 125 µM | MIC ([8]; 120 h, read-out: MIC TI 120 h): > 125 µM | MIC (Trichosporon asahii 1188; 24 h, read-out: MIC TA 24 h): > 125 µM | MIC (Trichosporon asahii 1188; 48 h, read-out: MIC TA 48 h): > 125 µM | MIC [9, 26]: > 500 µM | MIC [9, 27]: > 500 µM | MIC (Candida krusei E28; 24 h, read-out: MIC CK 24 h): > 125 µM | MIC (Candida krusei E28; 48 h, read-out: MIC CK 48 h): > 125 µM | MIC [10, 28]: > 500 µM | MIC [10, 29]: > 500 µM | MIC ([11]; 24 h, read-out: MIC AF 24 h): > 125 µM | MIC ([11]; 48 h, read-out: MIC AF 48 h): > 125 µM | MIC [12, 30]: > 500 µM | MIC [12, 31]: > 500 µM | MIC [13, 32]: 500 µM (≈ 128 µg/mL) | MIC [13, 33]: 500 µM (≈ 128 µg/mL) | MIC [13, 34]: 500 µM (≈ 128 µg/mL)

COc1ccc(O)c(C=Nc2ccc(C(=O)O)cc2)c1 [1h, 4-[(2-Hydroxy-5-methoxybenzylidene)amino]benzoic acid]
MIC [1, 14]: 1000 µM (≈ 271 µg/mL) | MIC [1, 15]: 1000 µM (≈ 271 µg/mL) | MIC (Candida glabrata 20/I; 24 h, read-out: MIC CG 24 h): 250 µM (≈ 67.8 µg/mL) | MIC (Candida glabrata 20/I; 48 h, read-out: MIC CG 48 h): 250 µM (≈ 67.8 µg/mL) | MIC KP 24 h [2]: >500 µM | MIC KP 48 h [2]: >500 µM | MIC ([3]; 24 h, read-out: MIC LC 24 h): > 500 µM | MIC ([3]; 48 h, read-out: MIC LC 48 h): > 500 µM | MIC [4, 16]: 500 µM (≈ 136 µg/mL) | MIC [4, 17]: 500 µM (≈ 136 µg/mL) | MIC [4, 18]: ≥ 250 µM | MIC [5, 19]: 500 µM (≈ 136 µg/mL) | MIC [5, 20]: 500 µM (≈ 136 µg/mL) | MIC [5, 21]: 500 µM (≈ 136 µg/mL) | MIC [6, 22]: > 500 µM | MIC [6, 23]: > 500 µM | MIC [7, 24]: 250 µM (≈ 67.8 µg/mL) | MIC [7, 25]: 500 µM (≈ 136 µg/mL) | MIC ([8]; 72 h, read-out: MIC TI 72 h): > 500 µM | MIC ([8]; 120 h, read-out: MIC TI 120 h): > 500 µM | MIC (Trichosporon asahii 1188; 24 h, read-out: MIC TA 24 h): 500 µM (≈ 136 µg/mL) | MIC (Trichosporon asahii 1188; 48 h, read-out: MIC TA 48 h): 500 µM (≈ 136 µg/mL) | MIC [9, 26]: > 500 µM | MIC [9, 27]: > 500 µM | MIC (Candida krusei E28; 24 h, read-out: MIC CK 24 h): 500 µM (≈ 136 µg/mL) | MIC (Candida krusei E28; 48 h, read-out: MIC CK 48 h): 500 µM (≈ 136 µg/mL) | MIC [10, 28]: > 500 µM | MIC [10, 29]: > 500 µM | MIC ([11]; 24 h, read-out: MIC AF 24 h): > 500 µM | MIC ([11]; 48 h, read-out: MIC AF 48 h): > 500 µM | MIC [12, 30]: > 500 µM | MIC [12, 31]: > 500 µM | MIC [13, 32]: 500 µM (≈ 136 µg/mL) | MIC [13, 33]: 500 µM (≈ 136 µg/mL) | MIC [13, 34]: 500 µM (≈ 136 µg/mL)
